From patent US20020137929A1, “1 - (3-heterocyclylphenyl) isothiourea, -isourea, -guanidine and -amidine herbicidal agents” (Intellectual Property Department, BASF Aktiengesellschaft, priority 1998, published 2002)

What was measured:
[1] = test system: MOOVA (Monochoria); assay: Preemergence weed control under flooded paddy conditions; format: in vivo, Monochoria vaginalis; conditions: rated 3-4 weeks after treatment
Summary of the method: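 Ratings on a 0-9 visual scale cover stand, vigor, malformation, size, chlorosis and overall appearance relative to a control, taken three to four weeks post-treatment. Application was into flood water over freshly sown silt loam at roughly 0.0313 to 0.500 kg/ha.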

[2] = test system: ORYSAT (Rice, Tebonnet); assay: Postemergence herbicidal evaluation; format: in vivo, Oryza sativa, (L.) Tebonnet; conditions: postemergence
Summary of the method: (§1)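 Two-week seedlings sprayed postemergence at 40 psi; formulation: 1:1 acetone/water, 0.5% TWEEN 20; application ≈0.0156–0.500 kg/ha. Greenhouse grow-out, then 0–9 visual scoring at 4–5 weeks.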

[3] = test system: CYPIR (Rice Flatsedge); assay: Preemergence weed control under flooded paddy conditions; format: in vivo, Cyperus iria; conditions: rated 3-4 weeks after treatment
Summary of the method: (§2)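 Herbicidal effect is scored visually on a 0-9 scale against an untreated control, three to four weeks after compounds are pipetted into the flood water (1.5 to 3 cm deep) over seeds planted in silt loam at 0.5 cm depth. Rates: about 0.0313 to 0.500 kg/ha.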

[4] = test system: ZEAMX (Corn, Field); assay: Preemergence herbicidal evaluation; format: in vivo, Zea mays; conditions: rated 4-5 weeks after treatment, rating scale 0-9
Summary of the method: (§3)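 Herbicidal effect scored visually, 0-9, at 4 to 5 weeks against a control; compound applied preemergence by aqueous acetone spray to seeded soil at about 0.0156 to 0.500 kg/ha.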

[5] = test system: SETVI (Foxtail, Green); assay: Postemergence herbicidal evaluation; format: in vivo, Setaria viridis; conditions: postemergence
Summary of the method: as §1

[6] = test system: TRZAWR (Wheat, Winter, cv Riband); assay: Preemergence herbicidal evaluation; format: in vivo, Triticum aestivum; conditions: rated 4-5 weeks after treatment, rating scale 0-9
Summary of the method: as §3

[7] = test system: GALAP (Galium); assay: Postemergence herbicidal evaluation; format: in vivo, Galium aparine; conditions: postemergence
Summary of the method: as §1

[8] = test system: ABUTH (Velvetleaf); assay: Postemergence herbicidal evaluation; format: in vivo, Abutilon theophrasti; conditions: postemergence
Summary of the method: as §1

[9] = test system: ECHORC (Watergrass (Calif.)); assay: Preemergence weed control under flooded paddy conditions; format: in vivo, Echinochloa oryzoides; conditions: rated 3-4 weeks after treatment
Summary of the method: as §2

[10] = test system: IPOHE (Morningglory, Ivyleaf); assay: Preemergence herbicidal evaluation; format: in vivo, Ipomoea hederacea; conditions: rated 4-5 weeks after treatment, rating scale 0-9
Summary of the method: as §3

[11] = test system: ECHCG (Barnyardgrass); assay: Postemergence herbicidal evaluation; format: in vivo, Echinochloa crus-galli; conditions: postemergence
Summary of the method: as §1

## Cn1c(C(F)(F)F)cc(=O)n(-c2cc(N=C3SCC(=O)N3Cc3ccc(Cl)cc3)c(Cl)cc2F)c1=O [Compound 145, 3-{4-Chloro-5-{[3-(p-chlorobenzyl)-4-oxo-2-thiazolidinylidene]amino}-2-fluorophenyl}-1-methyl-6-(trifluoromethyl)-2,4(1H,3H)-pyrimidinedione]
[1]; 0.0313 kg/ha
  herbicidal effect rating, MOOVA: 4.0
[1]; 0.0625 kg/ha
  herbicidal effect rating, MOOVA: 6.0
[1]; 0.1250 kg/ha
  herbicidal effect rating, MOOVA: 9.0
[1]; 0.2500 kg/ha
  herbicidal effect rating, MOOVA: 9.0
[2]; rate 0.0156 kg/ha
  herbicidal rating ORYSAT: 2.5
[2]; rate 0.0313 kg/ha
  herbicidal rating ORYSAT: 2.5
[2]; rate 0.0625 kg/ha
  herbicidal rating ORYSAT: 3.5
[3]; 0.0313 kg/ha
  herbicidal effect rating, CYPIR: 4.0
[3]; 0.0625 kg/ha
  herbicidal effect rating, CYPIR: 5.0
[3]; 0.1250 kg/ha
  herbicidal effect rating, CYPIR: 7.0
[3]; 0.2500 kg/ha
  herbicidal effect rating, CYPIR: 9.0
[4]; rate 0.0156 kg/ha
  Preemergence herbicidal rating ZEAMX: 0.0
[4]; rate 0.0313 kg/ha
  Preemergence herbicidal rating ZEAMX: 0.0
[4]; rate 0.0625 kg/ha
  Preemergence herbicidal rating ZEAMX: 0.0
[4]; rate 0.1250 kg/ha
  Preemergence herbicidal rating ZEAMX: 1.0
[4]; rate 0.2500 kg/ha
  Preemergence herbicidal rating ZEAMX: 2.0
[5]; rate 0.0156 kg/ha
  herbicidal rating SETVI: 1.0
[5]; rate 0.0313 kg/ha
  herbicidal rating SETVI: 3.0
[5]; rate 0.0625 kg/ha
  herbicidal rating SETVI: 5.0
[6]; rate 0.0156 kg/ha
  Preemergence herbicidal rating TRZAWR: 0.0
[6]; rate 0.0313 kg/ha
  Preemergence herbicidal rating TRZAWR: 1.0
[6]; rate 0.0625 kg/ha
  Preemergence herbicidal rating TRZAWR: 1.0
[6]; rate 0.1250 kg/ha
  Preemergence herbicidal rating TRZAWR: 0.0
[6]; rate 0.2500 kg/ha
  Preemergence herbicidal rating TRZAWR: 1.0
[7]; rate 0.0156 kg/ha
  herbicidal rating GALAP: 1.0
[7]; rate 0.0313 kg/ha
  herbicidal rating GALAP: 4.0
[7]; rate 0.0625 kg/ha
  herbicidal rating GALAP: 7.0
[8]; rate 0.0156 kg/ha
  herbicidal rating ABUTH: 9.0
[8]; rate 0.0313 kg/ha
  herbicidal rating ABUTH: 9.0
[8]; rate 0.0625 kg/ha
  herbicidal rating ABUTH: 9.0
[9]; 0.0313 kg/ha
  herbicidal effect rating, ECHORC: 6.0
[9]; 0.0625 kg/ha
  herbicidal effect rating, ECHORC: 6.0
[9]; 0.1250 kg/ha
  herbicidal effect rating, ECHORC: 7.0
[9]; 0.2500 kg/ha
  herbicidal effect rating, ECHORC: 7.0
[10]; rate 0.0156 kg/ha
  Preemergence herbicidal rating IPOHE: 0.0
[10]; rate 0.0313 kg/ha
  Preemergence herbicidal rating IPOHE: 0.0
[10]; rate 0.0625 kg/ha
  Preemergence herbicidal rating IPOHE: 0.0
[10]; rate 0.1250 kg/ha
  Preemergence herbicidal rating IPOHE: 7.0
[10]; rate 0.2500 kg/ha
  Preemergence herbicidal rating IPOHE: 5.0
[11]; rate 0.0156 kg/ha
  herbicidal rating ECHCG: 2.0
[11]; rate 0.0313 kg/ha
  herbicidal rating ECHCG: 3.0
[11]; rate 0.0625 kg/ha
  herbicidal rating ECHCG: 3.0

## Cn1c(C(F)(F)F)cc(=O)n(-c2cc(N=C3SCC(=O)N3Cc3ccc(S(N)(=O)=O)cc3)c(Cl)cc2F)c1=O [Compound 135, Alpha-{2-{{2-chloro-5-[3,6-dihydro-3-methyl-2,6-dioxo-4-(trifluoromethyl)-1(2H)-pyrimidinyl]-4-fluorophenyl}imino}-4-oxo-3-thiazolidinyl}-p-toluenesulfonamide]
[1]; 0.0313 kg/ha
  herbicidal effect rating, MOOVA: 6.0
[1]; 0.0625 kg/ha
  herbicidal effect rating, MOOVA: 9.0
[1]; 0.1250 kg/ha
  herbicidal effect rating, MOOVA: 9.0
[1]; 0.2500 kg/ha
  herbicidal effect rating, MOOVA: 8.0
[2]; rate 0.0156 kg/ha
  herbicidal rating ORYSAT: 2.0
[2]; rate 0.0313 kg/ha
  herbicidal rating ORYSAT: 2.0
[2]; rate 0.0625 kg/ha
  herbicidal rating ORYSAT: 2.5
[3]; 0.0313 kg/ha
  herbicidal effect rating, CYPIR: 5.0
[3]; 0.0625 kg/ha
  herbicidal effect rating, CYPIR: 6.0
[3]; 0.1250 kg/ha
  herbicidal effect rating, CYPIR: 7.0
[3]; 0.2500 kg/ha
  herbicidal effect rating, CYPIR: 7.0
[4]; rate 0.0156 kg/ha
  Preemergence herbicidal rating ZEAMX: 1.0
[4]; rate 0.0313 kg/ha
  Preemergence herbicidal rating ZEAMX: 1.0
[4]; rate 0.0625 kg/ha
  Preemergence herbicidal rating ZEAMX: 0.0
[4]; rate 0.1250 kg/ha
  Preemergence herbicidal rating ZEAMX: 2.0
[4]; rate 0.2500 kg/ha
  Preemergence herbicidal rating ZEAMX: 1.0
[5]; rate 0.0156 kg/ha
  herbicidal rating SETVI: 2.0
[5]; rate 0.0313 kg/ha
  herbicidal rating SETVI: 4.0
[5]; rate 0.0625 kg/ha
  herbicidal rating SETVI: 6.0
[6]; rate 0.0156 kg/ha
  Preemergence herbicidal rating TRZAWR: 0.0
[6]; rate 0.0313 kg/ha
  Preemergence herbicidal rating TRZAWR: 0.0
[6]; rate 0.0625 kg/ha
  Preemergence herbicidal rating TRZAWR: 0.0
[6]; rate 0.1250 kg/ha
  Preemergence herbicidal rating TRZAWR: 0.0
[6]; rate 0.2500 kg/ha
  Preemergence herbicidal rating TRZAWR: 1.0
[7]; rate 0.0156 kg/ha
  herbicidal rating GALAP: 1.0
[7]; rate 0.0313 kg/ha
  herbicidal rating GALAP: 3.0
[7]; rate 0.0625 kg/ha
  herbicidal rating GALAP: 4.0
[8]; rate 0.0156 kg/ha
  herbicidal rating ABUTH: 4.0
[8]; rate 0.0313 kg/ha
  herbicidal rating ABUTH: 9.0
[8]; rate 0.0625 kg/ha
  herbicidal rating ABUTH: 9.0
[9]; 0.0313 kg/ha
  herbicidal effect rating, ECHORC: 7.0
[9]; 0.0625 kg/ha
  herbicidal effect rating, ECHORC: 7.0
[9]; 0.1250 kg/ha
  herbicidal effect rating, ECHORC: 7.0
[9]; 0.2500 kg/ha
  herbicidal effect rating, ECHORC: 9.0
[10]; rate 0.0156 kg/ha
  Preemergence herbicidal rating IPOHE: 0.0
[10]; rate 0.0313 kg/ha
  Preemergence herbicidal rating IPOHE: 0.0
[10]; rate 0.0625 kg/ha
  Preemergence herbicidal rating IPOHE: 1.0
[10]; rate 0.1250 kg/ha
  Preemergence herbicidal rating IPOHE: 9.0
[10]; rate 0.2500 kg/ha
  Preemergence herbicidal rating IPOHE: 9.0
[11]; rate 0.0156 kg/ha
  herbicidal rating ECHCG: 1.0
[11]; rate 0.0313 kg/ha
  herbicidal rating ECHCG: 2.0
[11]; rate 0.0625 kg/ha
  herbicidal rating ECHCG: 2.0

## Cn1c(C(F)(F)F)cc(=O)n(-c2cc(N=C3SCC(=O)N3Cc3ccccc3Cl)c(Cl)cc2F)c1=O [Compound 143]
[1]; 0.0313 kg/ha
  herbicidal effect rating, MOOVA: 5.0
[1]; 0.0625 kg/ha
  herbicidal effect rating, MOOVA: 6.0
[1]; 0.1250 kg/ha
  herbicidal effect rating, MOOVA: 6.0
[1]; 0.2500 kg/ha
  herbicidal effect rating, MOOVA: 6.0
[2]; rate 0.0156 kg/ha
  herbicidal rating ORYSAT: 1.5
[2]; rate 0.0313 kg/ha
  herbicidal rating ORYSAT: 1.5
[2]; rate 0.0625 kg/ha
  herbicidal rating ORYSAT: 2.0
[3]; 0.0313 kg/ha
  herbicidal effect rating, CYPIR: 0.0
[3]; 0.0625 kg/ha
  herbicidal effect rating, CYPIR: 3.0
[3]; 0.1250 kg/ha
  herbicidal effect rating, CYPIR: 4.0
[3]; 0.2500 kg/ha
  herbicidal effect rating, CYPIR: 4.0
[4]; rate 0.0313 kg/ha
  Preemergence herbicidal rating ZEAMX: 0.0
[4]; rate 0.0625 kg/ha
  Preemergence herbicidal rating ZEAMX: 0.0
[4]; rate 0.1250 kg/ha
  Preemergence herbicidal rating ZEAMX: 0.0
[4]; rate 0.2500 kg/ha
  Preemergence herbicidal rating ZEAMX: 0.0
[5]; rate 0.0156 kg/ha
  herbicidal rating SETVI: 2.0
[5]; rate 0.0313 kg/ha
  herbicidal rating SETVI: 1.0
[5]; rate 0.0625 kg/ha
  herbicidal rating SETVI: 3.0
[6]; rate 0.0313 kg/ha
  Preemergence herbicidal rating TRZAWR: 0.0
[6]; rate 0.0625 kg/ha
  Preemergence herbicidal rating TRZAWR: 0.0
[6]; rate 0.1250 kg/ha
  Preemergence herbicidal rating TRZAWR: 0.0
[6]; rate 0.2500 kg/ha
  Preemergence herbicidal rating TRZAWR: 1.0
[7]; rate 0.0156 kg/ha
  herbicidal rating GALAP: 0.0
[7]; rate 0.0313 kg/ha
  herbicidal rating GALAP: 1.0
[7]; rate 0.0625 kg/ha
  herbicidal rating GALAP: 3.0
[8]; rate 0.0156 kg/ha
  herbicidal rating ABUTH: 9.0
[8]; rate 0.0313 kg/ha
  herbicidal rating ABUTH: 9.0
[8]; rate 0.0625 kg/ha
  herbicidal rating ABUTH: 9.0
[9]; 0.0313 kg/ha
  herbicidal effect rating, ECHORC: 5.0
[9]; 0.0625 kg/ha
  herbicidal effect rating, ECHORC: 7.0
[9]; 0.1250 kg/ha
  herbicidal effect rating, ECHORC: 9.0
[9]; 0.2500 kg/ha
  herbicidal effect rating, ECHORC: 9.0
[10]; rate 0.0313 kg/ha
  Preemergence herbicidal rating IPOHE: 0.0
[10]; rate 0.0625 kg/ha
  Preemergence herbicidal rating IPOHE: 0.0
[10]; rate 0.1250 kg/ha
  Preemergence herbicidal rating IPOHE: 1.0
[10]; rate 0.2500 kg/ha
  Preemergence herbicidal rating IPOHE: 3.0
[11]; rate 0.0156 kg/ha
  herbicidal rating ECHCG: 1.0
[11]; rate 0.0313 kg/ha
  herbicidal rating ECHCG: 2.0
[11]; rate 0.0625 kg/ha
  herbicidal rating ECHCG: 1.0
